Laboratory results published in patent US20170166558A1, “O-GLCNAC TRANSFERASE (OGT) INHIBITORS AND USES THEREOF” (President and Fellows of Harvard College, priority 2014, published 2017).

Legend:
[1] = molecular target: T1, full length human OGT (ncOGT) (Homo sapiens, UniProt O15294); assay: UDP-Glo luminescence-based coupled enzyme assay; type: biochemical
T1 construct: made in house
T1 sequence (O15294 1-1046): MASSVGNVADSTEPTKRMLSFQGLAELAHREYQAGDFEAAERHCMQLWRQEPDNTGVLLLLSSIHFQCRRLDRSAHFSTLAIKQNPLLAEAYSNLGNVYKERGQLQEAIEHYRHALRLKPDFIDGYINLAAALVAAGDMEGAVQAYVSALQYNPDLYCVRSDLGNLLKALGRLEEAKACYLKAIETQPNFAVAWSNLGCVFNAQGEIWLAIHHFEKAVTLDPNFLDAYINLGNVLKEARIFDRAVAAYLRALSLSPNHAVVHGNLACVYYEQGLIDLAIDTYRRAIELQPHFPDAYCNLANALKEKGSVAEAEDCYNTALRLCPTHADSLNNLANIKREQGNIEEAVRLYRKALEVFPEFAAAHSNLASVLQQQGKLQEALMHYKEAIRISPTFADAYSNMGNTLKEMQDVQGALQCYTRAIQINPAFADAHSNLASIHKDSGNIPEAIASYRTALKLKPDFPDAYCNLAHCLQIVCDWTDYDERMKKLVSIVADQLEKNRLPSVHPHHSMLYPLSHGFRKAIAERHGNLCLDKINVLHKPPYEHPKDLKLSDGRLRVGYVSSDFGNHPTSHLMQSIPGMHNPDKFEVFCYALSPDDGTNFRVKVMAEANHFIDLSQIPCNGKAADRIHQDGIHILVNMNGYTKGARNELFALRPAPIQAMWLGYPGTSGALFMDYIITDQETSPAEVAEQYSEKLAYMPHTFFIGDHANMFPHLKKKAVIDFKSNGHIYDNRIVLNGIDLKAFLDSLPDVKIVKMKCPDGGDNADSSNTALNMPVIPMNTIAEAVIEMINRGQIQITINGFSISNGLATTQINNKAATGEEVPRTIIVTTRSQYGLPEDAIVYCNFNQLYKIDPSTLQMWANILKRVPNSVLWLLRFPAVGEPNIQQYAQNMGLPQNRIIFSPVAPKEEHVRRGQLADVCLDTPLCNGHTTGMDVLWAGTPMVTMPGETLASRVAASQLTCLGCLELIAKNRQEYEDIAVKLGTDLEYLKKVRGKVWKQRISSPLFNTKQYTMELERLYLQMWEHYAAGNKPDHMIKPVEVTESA
Method: UDP-Glo assay: Materials for this assay were obtained from Promega (catalog #V6961), and the experiment was performed largely as outlined by the manufacturer. IC50 values were determined in the range of 0 to 100 μM (eleven concentration points). Assays were performed either in white, 96-well or ½-volume 96-well, plates. This assay was run with 125 μM CKII3K peptide acceptor. Reaction volumes were between 14 (half volume plates) and 20 (normal volume plates) μL. Reactions contained the following components: 300 nM ncOGT, 125 μM CKII3K and 40 μM UDP-GlcNAc in 1× PBS pH 7.4 supplemented with 1 mM THP. Reactions were incubated for one hour at 25° C. and quenched by the addition of an equal volume of UDP-Glo nucleotide detection reagent, prepared and used according to manufacturer guidelines. The quenched reactions were then mixed briefly by shaking at 1800 rpm in a Thermomixer C, and incubated for one hour at room temperature prior to reading luminescence, as per the manufacturers guidelines. Data were analyzed by Microsoft Excel and Prism 6 (Graphpad). When evaluating the effect of sugar donor concentration, this parameter was varied, while all other conditions remained as described above. Each sample in this case was run in duplicate, unless otherwise specified. The 40 μM curve in FIG. 16C has each point in quadruplicate. Similarly, there is an n=9 for each point in the OSMI-1 curve in FIG. 16B.

ncOGT = molecular target: T2, ncOGT (Homo sapiens, UniProt O15294); assay: Radiometric capture assay with Nup62 acceptor and UDP-14C-GlcNAc; type: biochemical
T2 construct: full length human OGT (ncOGT); made in house
T2 sequence (O15294 1-1046): T1 sequence (O15294 1-1046)
Method: Radiometric capture assay: Nucleoporin 62 (Nup62) was used as a model substrate. IC50 values of the both inhibitors were determined at range of 0 to 100 μM (eight point, duplicate). OGT antagonists were tested in a reaction mixture containing 18 μM Nup62, 6 μM UDP-^14C-GlcNAc, 100 nM ncOGT, and lx phosphate-buffered saline (1× PBS) (137 mM NaCl, 2.7 mM KCl, 10 mM Na2HPO4, and 1.8 mM KH2PO4, pH 7.4). The Nup62 glycosylation reactions were run for 15 min at 37° C. Reaction mixtures were subsequently quenched by spottinged on Whatman® Protran® nitrocellulose membrane, washed with 1× PBS three times for 15 minutes each. The membranes were air dried and then counted by liquid scintillation counting. The data were analyzed by Microsoft® Excel and Prism 6 (Graphpad®). Robust non-linear variable slope regressions were generated to determine the IC50 and Hill slope values.
In order to evaluate the mode of inhibition of OSMI-1 and UDP-5S-GlcNAc, a series of experiments, as outlined above, were performed with Nup62 as glycosylation substrate. The inhibition test of OSMI-1 was performed by varying the UDP-^14C-GlcNAc concentration from 0 to 0.25 mM while holding concentration of Nup62 constant at 10 μM with four different concentrations of OSMI-1 (0 to 2 μM) in 1× PBS with 100 nM ncOGT and with fixed and saturating concentrations of GST-Nup62 acceptor. The inhibition test of UDP-5S-GlcNAc was performed by varying the UDP-^14C-GlcNAc concentration from 0 to 1 mM while holding concentration of Nup62 constant at 10 μM with five different concentrations of UDP-5S-GlcNAc (0, 1, 5, 10, and 15 μM) in 1× PBS with 100 nM ncOGT. Each reaction was spotted on Whatman® grade P81 ion exchange chromatography paper circles, washed with 1× PBS three times for 15 minutes each. The membranes were air dried and then counted by liquid scintillation counting. Each assay was duplicated in parallel. The data were analyzed by Microsoft® Excel and Prism 6 (Graphpad®). The Michaelis-Menten plots and Ki of both inhibitors calculated under non-linear regression with competitive inhibition mode are shown in FIG. 5.

IC50 ([1]; 40 μM UDP-GlcNAc, 125 μM CKII3K peptide, read-out: IC50 against ncOGT, coupled enzyme assay): 2700 nM | Mode of inhibition with respect to UDP-GlcNAc ([1]; various UDP-GlcNAc concentrations): did not act competitively | IC50 (ncOGT; 6 μM UDP-GlcNAc, 18 μM GST-Nup62): 3000 nM | Ki (ncOGT; non-linear regression, competitive inhibition fit, Nup62 substrate, read-out: Inhibition constant (Ki)): 400 nM
SMILES: COc1ccccc1[C@@H](NS(=O)(=O)c1ccc2[nH]c(=O)ccc2c1)C(=O)N(Cc1ccco1)Cc1cccs1 [OSMI-1, (R)—N-(furan-2-ylmethyl)-2-(2-methoxyphenyl)-2-(2-oxo-1,2-dihydroquinoline-6-sulfonamido)-N-(thiophen-2-ylmethyl)acetamide]
